Data from publication PMC11396062, “The n-Butanol Extract Obtained from the Inner Bark of Tabebuia rosea (Bertol.) DC, Specioside, and Catalposide Induce Leukemia Cell Apoptosis in the Presence of Apicidin” (Molecules, 2024).
Converted amounts (≈) assume the structure as drawn. Like-named read-outs stand apart in the source and are kept apart here.

How the values were obtained:
THP-1 cells [1] = assay: Flow cytometric apoptosis, Annexin V-CF647/7-AAD; assay type: cell-based, human; conditions: THP-1, 24 h, apicidin pretreatment
Method: In 96-well plates, 8 × 10^4 cells were treated with 25, 50, and 100 µg/mL extract and 400 µM doxorubicin (positive control) for 24 and 48 h. The cells were washed with 1X PBS, and apoptotic cells were detected by staining with 100 µL of Annexin V-CF647 and 5 µL of the 7-AAD Apoptosis Annexin Red Kit (FCCH100108 FlowCellect, Millipore, Darmstadt, Germany). The cells were incubated at room temperature for 15 min in the dark and analyzed on a Guava Millipore flow cytometer (Merck Millipore, Bedford, MA, USA) using InCyte software (version 3.1, Merck Millipore). The percentage of annexin V-positive cells was evaluated.

THP-1 cells [2] = assay: Cell cycle analysis by flow cytometry; assay type: cell-based, human; conditions: THP-1, APC pretreatment
Method: After treatment with the extract, 7 × 10^4 cells were harvested, washed with PBS, fixed with 200 µL of ice-cold 70% ethanol, and maintained at 4 °C for 4 h before staining. The cell pellet was washed in 1X PBS, resuspended in 200 µL of Guava Cell Cycle reagent (#4500-0220, Millipore), and incubated in the dark at 37 °C for 30 min before analysis with a Guava flow cytometer (Merck Millipore, Bedford, MA, USA) using InCyte software (version 3.1, Merck Millipore).. Centrifugation was performed at 1200 rpm for 5 min at room temperature for each step.

THP-1 cells [3] = assay: Fluorescence microscopy of nuclear morphology (propidium iodide and Hoechst staining); assay type: cell-based, human; conditions: THP-1, APC pretreatment, extract 25 μg/mL
Method: Fluorescence microscopy was used to observe cell nuclear morphology, followed by propidium iodide (50 µg/mL) and Hoechst 333342 (1 mg/mL) staining. THP-1 cells (1 × 10^5 cells/well) were treated with fresh media (control) and with 25, 50, or 100 µg/mL extract for 24 h; 400 µM doxorubicin was used as a positive control. Further, 10 microliters of the cell suspension was mixed with 90 µL of the dye, incubated in a water bath for 5 min at 37 °C, and wrapped in aluminum foil. The cells were examined under an Olympus IX53 fluorescence microscope (Olympus Corporation, Tokyo, Japan). The following formula was used to calculate the percentage of apoptotic cells.

THP-1 cells [4] = assay: Mitochondrial membrane potential (JC-1); assay type: cell-based, human; conditions: THP-1, JC-1, 24 h
Method: The Λᴪm was measured using a Guava Mitochondrial Depolarization Kit (4500-0250 Millipore, Darmstadt, Germany). After pretreatment with 1 µM apicidin for 24 h, the cells were exposed to various concentrations of the extract (25, 50, and 100 µg/mL) for 24 h. The cells were collected and suspended in 100 µL of PBS containing JC-1 and 7-AAD after incubation at 37 °C for 15 min. The fluorescence intensity of the cells was analyzed in a Guava Millipore flow cytometer (Merck Millipore, Bedford, MA, USA) using InCyte software (version 3.1, Merck Millipore).

Jurkat cells = assay: MTT cell viability assay, Jurkat cells; assay type: cell-based, human; conditions: for IC50: Homo sapiens, Jurkat, MTT, n = 3; for SI (selectivity index): IC50 PBMC / IC50 Jurkat
Method: (§1) Jurkat and THP-1 cell lines were purchased from the American Type Culture Collection (ATCC, Rockville, MD, USA); Jurkat is a human lymphocytic cell line representing acute T-cell leukemia, and THP-1 is a monocytic cell line that represents acute myelogenous leukemia (AML). […] Cat Nos. […] The cells were maintained at 37 °C in a humidified atmosphere with 5% CO2. The culture medium was exchanged with fresh medium every 2-3 days. Peripheral blood mononuclear cells (PBMCs) were isolated from normal human venous blood. Further, 10 milliliters of human blood was mixed with 10 mL of RPMI-1640 containing 50 μL of heparin and gradually poured over 1 mL of HISTOPAQUE®-1119 (Sigma). The plasma was removed by centrifugation at 3000 rpm for 30 min. The peripheral blood mononuclear cell-containing layer was collected with a pipette and diluted in 4 mL of PBS. PBMCs were harvested by centrifugation at 1500 rpm for 10 min at room temperature, resuspended in RPMI-1640 with 10% FBS, and incubated at 37 °C in 5% CO2 humidified air. […] Doxorubicin was used as a reference standard drug (positive control). After treatment, the medium was discarded; 200 μL of RPMI 1640 medium without phenol red containing 0.5 mg/mL MTT (Sigma Chemical Co., Saint Louis, MO, USA; Cat. No. […] The plates were incubated for four hours at 37 °C with 5% CO2 in a humidified atmosphere. The medium was discarded, and 100 μL of DMSO was added to solubilize the formazan crystals. The absorbance was measured with an ELISA microplate reader at 492 nm (ELx800; BioTek Instruments Inc., Winooski, VT, USA). The percentage of viable cells was calculated on the basis of the nontreated control (taken as 100%). […] Three independent assays were performed, each in triplicate. The selectivity index corresponds to the ratio of the IC50 value calculated for the activity of synthesized compounds on a regular cell line (PBMCs) to that of the IC50 calculated for cancer cell lines (Jurkat and THP-1). Values greater than two were optimal for an efficient selectivity index.

[5] = test system: Peripheral blood mononuclear cells (PBMCs); assay: MTT cell viability assay, PBMC (normal cells); assay type: cell-based; conditions: Homo sapiens, n = 3
Method: Jurkat and THP-1 cell lines were purchased from the American Type Culture Collection (ATCC, Rockville, MD, USA); Jurkat is a human lymphocytic cell line representing acute T-cell leukemia, and THP-1 is a monocytic cell line that represents acute myelogenous leukemia (AML). Jurkat and THP-1 cells were maintained in RPMI 1640 medium (Sigma) supplemented with 10% heat-inactivated fetal bovine serum (FBS) (Gibco Cat No. 16140071, Waltham, MA USA), 200 μg/mL penicillin, 200 μg/mL streptomycin, 400 μg/mL neomycin (GIBCO, Cat No. 15640-055), 5 μg/mL amphotericin, and 1 mM sodium pyruvate (all from Sigma Chemical Co., Saint Louis, MO, USA; Cat Nos. A9528-50 MG, M7522-100ML, and S8636-100ML, respectively). The cells were maintained at 37 °C in a humidified atmosphere with 5% CO2. The culture medium was exchanged with fresh medium every 2–3 days. Peripheral blood mononuclear cells (PBMCs) were isolated from normal human venous blood. Further, 10 milliliters of human blood was mixed with 10 mL of RPMI-1640 containing 50 µL of heparin and gradually poured over 1 mL of HISTOPAQUE®-1119 (Sigma). The plasma was removed by centrifugation at 3000 rpm for 30 min. The peripheral blood mononuclear cell-containing layer was collected with a pipette and diluted in 4 mL of PBS. PBMCs were harvested by centrifugation at 1500 rpm for 10 min at room temperature, resuspended in RPMI-1640 with 10% FBS, and incubated at 37 °C in 5% CO2 humidified air.
Cell viability was determined by measuring the mitochondrial activity of live cells via the metabolism of the tetrazolium substrate 3-(4,5-dimethylthiazol-2-yl)-2,5-diphenyl tetrazolium bromide (MTT) and converting it to purple formazan crystals. Briefly, the cells (2 × 10^4 cells/well) were treated with 25, 50, 100, 200, or 400 μg/mL extract diluted in DMSO (at a final concentration of 0.5%) and incubated for 12, 24, or 48 h. Catalposide and specioside were tested at concentrations of 20, 50, and 100 μg/mL for 12, 24, and 48 h. For apicidin, 0.5, 1, and 2 μM apicidin were tested for 24 and 48 h. Doxorubicin was used as a reference standard drug (positive control). After treatment, the medium was discarded; 200 μL of RPMI 1640 medium without phenol red containing 0.5 mg/mL MTT (Sigma Chemical Co., Saint Louis, MO, USA; Cat. No. M2128-500MG) was then added to each well. The plates were incubated for four hours at 37 °C with 5% CO2 in a humidified atmosphere. The medium was discarded, and 100 μL of DMSO was added to solubilize the formazan crystals. The absorbance was measured with an ELISA microplate reader at 492 nm (ELx800; BioTek Instruments Inc., Winooski, VT, USA). The percentage of viable cells was calculated on the basis of the nontreated control (taken as 100%). The IC50 (concentration causing a 50% reduction in cellular viability) values for all the tested compounds were evaluated in Excel using the nonlinear regression curve method. Three independent assays were performed, each in triplicate.

THP-1 cells [6] = assay: MTT cell viability assay, THP-1 cells; assay type: cell-based, human; conditions: for IC50: Homo sapiens, MTT, n = 3, read-out: IC50
Method: as §1

SMILES	percentage of apoptotic cells, apicidin pretreatment compared with catalposide or specioside treatment (THP-1 cells [1])	G0/G1 phase arrest with APC pretreatment (THP-1 cells [2])	apoptosis (nuclear morphology) after APC pretreatment (THP-1 cells [3])	depolarization of the mitochondrial membrane (THP-1 cells [4])	IC50 (Jurkat cells; 12 h) [µg/mL]	IC50 (Jurkat cells; 24 h) [µg/mL]	IC50 (Jurkat cells; 48 h) [µg/mL]	SI (selectivity index) (Jurkat cells; 12 h)	SI (selectivity index) (Jurkat cells; 24 h)	SI (selectivity index) (Jurkat cells; 48 h)	IC50 ([5]; 12 h) [µg/mL]	IC50 ([5]; 24 h) [µg/mL]	IC50 ([5]; 48 h) [µg/mL]	IC50 (THP-1 cells [6]; THP-1, 12 h) [µg/mL]	IC50 (THP-1 cells [6]; THP-1, 24 h) [µg/mL]	IC50 (THP-1 cells [6]; THP-1, 48 h) [µg/mL]	SI (selectivity index) (THP-1 cells [6]; IC50 PBMC / IC50 THP-1, 12 h)	SI (selectivity index) (THP-1 cells [6]; IC50 PBMC / IC50 THP-1, 24 h)	SI (selectivity index) (THP-1 cells [6]; IC50 PBMC / IC50 THP-1, 48 h)
CCC(=O)CCCCC[C@@H]1NC(=O)[C@H]2CCCCN2C(=O)[C@H]([C@@H](C)CC)NC(=O)[C@H](Cc2cn(OC)c3ccccc23)NC1=O [APC, apicidin]	increased the percentage of apoptotic cells	increased	increased apoptosis	decreased mitochondrial membrane polarization															
COc1cccc2c1C(=O)c1c(O)c3c(c(O)c1C2=O)C[C@@](O)(C(=O)CO)C[C@@H]3O[C@H]1C[C@H](N)[C@H](O)[C@H](C)O1 [Doxorubicin, reference compound]					0.339 ± 1.2 (≈ 0.624 µM)	0.258 ± 0.1 (≈ 0.475 µM)	0.05 (≈ 0.092 µM)	4.02	0.86	0.36	1.36 ± 0.15 (≈ 2.51 µM)	0.224 ± 0.1 (≈ 0.412 µM)	0.018 ± 0.1 (≈ 0.0331 µM)	1.27 ± 0.2 (≈ 2.33 µM)	0.189 ± 0.1 (≈ 0.348 µM)	0.005 ± 0.01 (≈ 0.0092 µM)	1.07	1.183	3.6
